From ChEMBL document CHEMBL5291721, “A preclinical secondary pharmacology resource illuminates target-adverse drug reaction associations of marketed drugs” (Nat Commun, 2023)

Legend:
[1] = target: T1, Alpha-1A adrenergic receptor (Homo sapiens, UniProt P35348)
T1 sequence (P35348 whole entry): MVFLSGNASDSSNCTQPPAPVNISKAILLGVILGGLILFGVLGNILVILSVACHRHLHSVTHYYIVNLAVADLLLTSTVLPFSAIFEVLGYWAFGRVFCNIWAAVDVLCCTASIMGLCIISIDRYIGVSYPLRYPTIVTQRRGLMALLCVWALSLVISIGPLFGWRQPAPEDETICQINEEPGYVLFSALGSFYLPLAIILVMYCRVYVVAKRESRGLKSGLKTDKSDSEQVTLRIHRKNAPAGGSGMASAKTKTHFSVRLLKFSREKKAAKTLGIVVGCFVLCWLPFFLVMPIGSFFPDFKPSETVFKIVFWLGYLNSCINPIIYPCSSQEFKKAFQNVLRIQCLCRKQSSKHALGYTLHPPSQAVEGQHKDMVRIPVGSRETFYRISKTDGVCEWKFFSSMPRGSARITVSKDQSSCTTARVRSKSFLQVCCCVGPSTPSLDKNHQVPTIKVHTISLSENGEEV

[2] = target: 5-hydroxytryptamine receptor 2B (Homo sapiens, UniProt P41595); type: functional, cell-based
D(3) dopamine receptor = D(3) dopamine receptor (Homo sapiens, UniProt P35462)
[3] = target: Gamma-aminobutyric acid receptor subunit alpha-1/alpha-2/beta-2/gamma-2 (Homo sapiens, UniProt P14867+P47870+P18507+P47869); type: functional, cell-based
[4] = target: T2, Prostaglandin G/H synthase 1 (Rattus norvegicus, UniProt Q63921); type: functional
T2 sequence (Q63921 whole entry): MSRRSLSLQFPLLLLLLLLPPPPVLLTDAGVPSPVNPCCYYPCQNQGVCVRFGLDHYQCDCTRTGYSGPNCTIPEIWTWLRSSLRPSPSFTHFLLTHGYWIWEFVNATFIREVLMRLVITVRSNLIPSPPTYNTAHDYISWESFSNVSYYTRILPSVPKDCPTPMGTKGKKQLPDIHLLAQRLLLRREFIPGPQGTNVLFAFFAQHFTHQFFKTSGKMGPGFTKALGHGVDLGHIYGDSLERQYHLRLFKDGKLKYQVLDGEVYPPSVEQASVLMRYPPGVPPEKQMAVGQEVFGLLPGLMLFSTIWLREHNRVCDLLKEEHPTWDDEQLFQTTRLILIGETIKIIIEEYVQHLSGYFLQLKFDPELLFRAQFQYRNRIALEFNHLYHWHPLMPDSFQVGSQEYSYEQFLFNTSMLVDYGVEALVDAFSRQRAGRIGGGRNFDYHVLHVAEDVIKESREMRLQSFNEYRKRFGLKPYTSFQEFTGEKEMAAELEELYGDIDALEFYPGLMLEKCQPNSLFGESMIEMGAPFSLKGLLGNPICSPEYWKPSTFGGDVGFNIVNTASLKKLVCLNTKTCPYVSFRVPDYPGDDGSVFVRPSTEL

[5] = target: Synaptic vesicular amine transporter (Rattus norvegicus, UniProt Q01827); type: functional
[6] = target: T1, Alpha-1A adrenergic receptor; type: functional, cell-based
Glucocorticoid receptor = target: T3, Glucocorticoid receptor (Homo sapiens, UniProt P04150); type: functional
T3 sequence (P04150 whole entry): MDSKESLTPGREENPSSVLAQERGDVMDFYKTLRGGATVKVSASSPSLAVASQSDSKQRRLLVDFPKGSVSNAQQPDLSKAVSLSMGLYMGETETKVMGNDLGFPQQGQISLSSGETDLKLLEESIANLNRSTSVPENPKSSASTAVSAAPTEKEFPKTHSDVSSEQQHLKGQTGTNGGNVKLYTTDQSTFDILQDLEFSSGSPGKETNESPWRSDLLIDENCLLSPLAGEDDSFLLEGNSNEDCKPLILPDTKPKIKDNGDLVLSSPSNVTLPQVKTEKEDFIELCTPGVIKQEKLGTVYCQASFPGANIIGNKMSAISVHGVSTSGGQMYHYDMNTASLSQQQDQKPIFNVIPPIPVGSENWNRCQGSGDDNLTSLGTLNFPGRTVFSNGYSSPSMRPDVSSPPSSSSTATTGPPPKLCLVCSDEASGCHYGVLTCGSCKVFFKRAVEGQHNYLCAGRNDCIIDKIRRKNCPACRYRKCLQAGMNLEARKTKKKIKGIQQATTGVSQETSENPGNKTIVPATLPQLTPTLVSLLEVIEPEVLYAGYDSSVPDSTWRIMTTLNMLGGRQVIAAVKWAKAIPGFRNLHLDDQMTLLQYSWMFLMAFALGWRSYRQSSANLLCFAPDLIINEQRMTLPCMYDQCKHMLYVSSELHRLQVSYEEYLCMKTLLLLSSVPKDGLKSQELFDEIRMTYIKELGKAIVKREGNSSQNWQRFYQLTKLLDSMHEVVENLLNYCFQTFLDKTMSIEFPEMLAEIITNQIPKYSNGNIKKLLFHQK
Also: assay procedure not described here.

Chain of D(3) dopamine receptor (P35462 whole entry): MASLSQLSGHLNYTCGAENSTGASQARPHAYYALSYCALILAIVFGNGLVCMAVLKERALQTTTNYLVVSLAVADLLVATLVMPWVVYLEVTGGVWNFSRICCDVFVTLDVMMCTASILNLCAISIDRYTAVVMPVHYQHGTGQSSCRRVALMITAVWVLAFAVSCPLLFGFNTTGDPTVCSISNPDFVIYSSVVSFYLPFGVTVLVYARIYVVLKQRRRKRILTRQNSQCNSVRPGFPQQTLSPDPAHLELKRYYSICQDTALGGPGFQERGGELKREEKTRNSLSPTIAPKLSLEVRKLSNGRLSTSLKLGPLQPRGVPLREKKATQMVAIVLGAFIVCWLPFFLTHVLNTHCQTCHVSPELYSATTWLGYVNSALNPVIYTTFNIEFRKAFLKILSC
Chain of 5-hydroxytryptamine receptor 2B (P41595 whole entry): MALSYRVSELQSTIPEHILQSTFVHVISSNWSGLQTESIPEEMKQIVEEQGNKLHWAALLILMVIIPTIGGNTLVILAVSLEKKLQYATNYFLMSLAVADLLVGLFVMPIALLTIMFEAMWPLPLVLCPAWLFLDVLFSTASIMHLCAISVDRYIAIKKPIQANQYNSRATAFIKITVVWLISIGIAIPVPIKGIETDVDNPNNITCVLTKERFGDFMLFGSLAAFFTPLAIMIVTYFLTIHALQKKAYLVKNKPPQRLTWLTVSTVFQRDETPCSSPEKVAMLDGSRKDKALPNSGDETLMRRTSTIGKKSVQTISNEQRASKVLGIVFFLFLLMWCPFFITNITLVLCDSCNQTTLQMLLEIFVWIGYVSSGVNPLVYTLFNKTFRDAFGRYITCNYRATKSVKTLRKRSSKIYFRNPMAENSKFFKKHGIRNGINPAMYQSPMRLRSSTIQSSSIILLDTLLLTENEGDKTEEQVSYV
Chain of Synaptic vesicular amine transporter (Q01827 whole entry): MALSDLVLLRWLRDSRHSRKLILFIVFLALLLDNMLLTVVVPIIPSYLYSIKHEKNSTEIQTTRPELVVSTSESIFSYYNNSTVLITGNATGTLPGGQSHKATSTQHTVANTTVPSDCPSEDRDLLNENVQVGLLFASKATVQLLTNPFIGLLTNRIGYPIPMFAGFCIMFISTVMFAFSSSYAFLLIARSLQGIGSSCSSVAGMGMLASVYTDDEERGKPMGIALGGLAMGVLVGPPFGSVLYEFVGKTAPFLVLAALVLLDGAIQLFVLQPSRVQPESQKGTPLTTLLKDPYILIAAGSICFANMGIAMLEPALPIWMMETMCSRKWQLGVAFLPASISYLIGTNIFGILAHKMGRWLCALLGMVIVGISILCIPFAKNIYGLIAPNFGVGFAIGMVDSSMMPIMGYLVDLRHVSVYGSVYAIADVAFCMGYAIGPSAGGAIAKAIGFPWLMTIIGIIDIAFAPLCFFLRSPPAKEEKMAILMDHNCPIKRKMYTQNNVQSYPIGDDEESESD
Chain of Gamma-aminobutyric acid receptor subunit alpha-1/alpha-2/beta-2/gamma-2 (P14867 whole entry): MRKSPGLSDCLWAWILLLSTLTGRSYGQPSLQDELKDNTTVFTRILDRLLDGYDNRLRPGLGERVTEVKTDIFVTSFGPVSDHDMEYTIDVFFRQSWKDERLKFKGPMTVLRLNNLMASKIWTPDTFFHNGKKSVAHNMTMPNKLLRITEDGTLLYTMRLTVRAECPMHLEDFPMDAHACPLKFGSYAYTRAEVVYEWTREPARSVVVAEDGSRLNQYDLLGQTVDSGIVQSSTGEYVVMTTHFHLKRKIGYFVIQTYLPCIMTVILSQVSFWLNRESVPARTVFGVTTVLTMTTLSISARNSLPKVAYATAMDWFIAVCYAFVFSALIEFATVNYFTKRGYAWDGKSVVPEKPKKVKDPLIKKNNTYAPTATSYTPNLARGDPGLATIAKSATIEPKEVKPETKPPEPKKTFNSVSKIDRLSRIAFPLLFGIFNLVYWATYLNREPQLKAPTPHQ
Chain of Gamma-aminobutyric acid receptor subunit alpha-1/alpha-2/beta-2/gamma-2 (P47870 whole entry): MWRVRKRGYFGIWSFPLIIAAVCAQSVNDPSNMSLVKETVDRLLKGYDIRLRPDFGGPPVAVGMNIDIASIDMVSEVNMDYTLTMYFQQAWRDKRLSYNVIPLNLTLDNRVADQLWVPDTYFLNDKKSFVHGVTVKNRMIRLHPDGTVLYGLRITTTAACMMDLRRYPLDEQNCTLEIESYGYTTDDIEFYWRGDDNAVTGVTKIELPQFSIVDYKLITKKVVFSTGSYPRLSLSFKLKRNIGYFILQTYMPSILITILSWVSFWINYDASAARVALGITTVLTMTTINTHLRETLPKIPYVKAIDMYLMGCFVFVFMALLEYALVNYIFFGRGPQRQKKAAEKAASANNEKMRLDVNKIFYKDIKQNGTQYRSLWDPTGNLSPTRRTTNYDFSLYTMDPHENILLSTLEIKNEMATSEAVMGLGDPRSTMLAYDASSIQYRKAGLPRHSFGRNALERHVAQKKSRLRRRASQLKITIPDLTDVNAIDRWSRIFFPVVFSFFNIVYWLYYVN
Chain of Gamma-aminobutyric acid receptor subunit alpha-1/alpha-2/beta-2/gamma-2 (P18507 whole entry): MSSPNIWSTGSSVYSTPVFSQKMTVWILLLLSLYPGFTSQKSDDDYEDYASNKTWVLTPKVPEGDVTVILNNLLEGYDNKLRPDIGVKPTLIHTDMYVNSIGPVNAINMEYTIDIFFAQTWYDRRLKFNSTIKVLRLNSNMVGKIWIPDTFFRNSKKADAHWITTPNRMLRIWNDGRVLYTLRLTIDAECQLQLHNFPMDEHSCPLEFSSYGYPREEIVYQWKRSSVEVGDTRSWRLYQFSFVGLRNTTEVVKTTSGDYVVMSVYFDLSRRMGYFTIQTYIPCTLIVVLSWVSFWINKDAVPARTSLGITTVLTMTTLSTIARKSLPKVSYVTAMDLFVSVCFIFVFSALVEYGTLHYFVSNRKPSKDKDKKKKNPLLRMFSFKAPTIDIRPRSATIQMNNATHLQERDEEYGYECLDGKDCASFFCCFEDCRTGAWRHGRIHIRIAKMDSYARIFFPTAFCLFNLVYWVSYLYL
Chain of Gamma-aminobutyric acid receptor subunit alpha-1/alpha-2/beta-2/gamma-2 (P47869 whole entry): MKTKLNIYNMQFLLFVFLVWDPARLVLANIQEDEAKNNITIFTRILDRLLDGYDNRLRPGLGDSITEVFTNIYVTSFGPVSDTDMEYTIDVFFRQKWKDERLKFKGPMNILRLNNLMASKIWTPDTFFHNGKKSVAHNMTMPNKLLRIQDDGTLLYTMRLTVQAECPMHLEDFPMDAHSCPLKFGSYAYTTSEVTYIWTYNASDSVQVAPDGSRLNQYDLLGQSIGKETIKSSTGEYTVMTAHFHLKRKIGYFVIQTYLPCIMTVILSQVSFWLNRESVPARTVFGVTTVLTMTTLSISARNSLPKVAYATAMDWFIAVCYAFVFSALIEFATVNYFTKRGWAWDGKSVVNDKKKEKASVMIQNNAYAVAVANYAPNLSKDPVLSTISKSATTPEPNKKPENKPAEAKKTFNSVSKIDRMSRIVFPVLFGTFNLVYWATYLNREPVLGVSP

COLISTIN
AC50 [1]: > 30 µM
AC50 [2]: > 30 µM
AC50 (D(3) dopamine receptor): > 30 µM
AC50 [3]: > 30 µM

COC(=O)N[C@@H](C)CNc1nccc(-c2cn(C(C)C)nc2-c2cc(Cl)cc(NS(C)(=O)=O)c2F)n1 [ENCORAFENIB]
AC50 [4]: > 30 µM

COc1ccc(C(CN(C)C)C2(O)CCCCC2)cc1 (stereo unspecified) [VENLAFAXINE]
AC50 [5]: > 30 µM

NCCCC(O)(P(=O)(O)O)P(=O)(O)O [ALENDRONIC ACID]
AC50 [6]: > 30 µM

COc1cccc2c1C(=O)c1c(O)c3c(c(O)c1C2=O)C[C@@](O)(C(C)=O)C[C@@H]3O[C@H]1C[C@H](N)[C@H](O)[C@H](C)O1 [DAUNORUBICIN]
AC50 (Glucocorticoid receptor): > 10 µM

C[n+]1ccccc1/C=N/O [PRALIDOXIME]
AC50 [1]: > 30 µM
AC50 [2]: > 30 µM
AC50 (D(3) dopamine receptor): > 30 µM
